Source: a melting point compilation (Tetko et al.; mined from patent text by program, amines drawn as free bases though some values may be those of a salt)

Point of comparison: `O=c1ncc(Br)cn1CSc1ccc(F)cc1`, melting point 206 °C. Against it:
- Cc1onc(-c2ccc(-c3cscn3)cc2)c1-c1ccc(S(C)(=O)=O)c(F)c1 — lower, 130 °C
- Cc1oc2c(C=Cc3c(Cl)cccc3Cl)cccc2c1C — lower, 93 to 94 °C
- Cc1ccccc1Nc1c(C(=O)C(C)C)cnc2c(CO)cccc12 — lower, 116 to 118 °C
- O=C(Nc1cccc2c1C(=O)c1c-2n[nH]c1-c1ccc(C(=O)NC2CCCNC2)s1)NN1CCOCC1 (centres undefined) — higher, > 300 °C
- CCN(CC)SNc1ccc(Oc2ccc(C(F)(F)F)cc2Cl)cc1F — lower, 58 to 60 °C
- O=C(O)CSCCCCc1cccc2cncn12 — lower, 124 to 126 °C
- O=C(O)COc1ccc(Br)cc1C(=O)NCc1ccc(Br)cc1F — lower, 153 to 155 °C
- CC(C)(O)c1nc(CO)n(Cc2ccc(-c3ccccc3-c3nnn[nH]3)cc2)c1C(=O)O — lower, 201 to 202 °C
- O=S(=O)(c1ccc(F)c(C(F)(F)F)c1)N1CCC(Nc2nc(Nc3cccc(C(F)(F)F)c3)nc(OCC(F)(F)F)n2)CC1 — higher, 250 to 252 °C
- O=C(O)c1ccc(OCCNC(=O)C2Cc3ccccc3N2S(=O)(=O)c2ccc(-c3ccc(F)cc3)cc2)c(C(F)(F)F)c1 (centres undefined) — lower, 139 to 142 °C
- CCC(CC)n1nc(-c2ccc(O)cc2O)c2cccc(C(F)(F)F)c21 — lower, 121 to 122 °C
- CC(C)(C)OC(=O)C(C)(C)ON=C(C(=O)O)c1cccs1 — lower, 201 to 202 °C
- CN1CC[C@H](NC(=O)c2ccccc2)[C@H](c2ccccc2)C1 (relative stereo) — lower, 154 to 155 °C
- CCCn1c(=O)c(/C=C/C(=O)OCC)c2n(c1=O)CCS2 — lower, 140 to 141 °C
- O=C(O)Cc1csc(-c2ccccc2O)n1 — lower, 173 to 174 °C
- CCCc1nc(C(O)C(C)(C)C)c(C(N)=O)n1Cc1ccc(-c2ccccc2-c2nnn[nH]2)cc1 (centres undefined) — lower, 174 to 176 °C
- COC(C)(C)c1cccc(Cn2nnc3c(-c4ccc(C)o4)nc(N)nc32)n1 — lower, 178 °C
- O=C(Cc1ccc(Cl)cc1Cl)c1ccncc1 — lower, 77 °C
- CCc1ncccc1NC(=NC#N)NC(NC(=O)Cc1ccc(Cl)cc1)C(C)(C)C (centres undefined) — lower, 112 to 114 °C
- Cc1n[nH]c2cc(-c3nn(C(C)c4oc5ccccc5c(=O)c4-c4cccc(F)c4)c4ncnc(N)c34)ccc12 (centres undefined) — lower, 158 to 161 °C
- Cc1ccc(OC2COc3ccc(O)cc3C2O)cn1 (centres undefined) — higher, 240 to 241 °C
- Cc1cccc(C=Cc2ccccc2C#N)n1 — lower, 91 to 92 °C
- Nc1cc(OCc2cccc(Cl)c2)c(C(=O)O)cc1Cl — lower, 182 to 184 °C
- c1ccc2[nH]c(CN3CCOCC3)nc2c1 — higher, 235 to 236 °C
- COC(=O)c1ccc(Oc2cc3c(cc2C(C)C)C(C)(C)CCC3(C)C)cc1 — lower, 115 to 116 °C
- CCC(C)C1CCCCC1NC(=O)c1sc(C)nc1C(F)(F)F (centres undefined) — lower, 112 to 113 °C
- Cc1sc(-c2ccccc2)nc1COc1ccc(CCCC(O)C#N)cc1 (centres undefined) — lower, 101 to 102 °C
- COc1cc(OC)nc(C(OC)(C(=O)NS(C)(=O)=O)c2ccccc2)n1 (centres undefined) — lower, 155 to 157 °C
- NS(=O)(=O)c1cccc(C(=O)Cl)c1 — lower, 123 °C
- CCCCc1nc2c(N)nc3ccccc3c2n1CCCCCCl — lower, 144 to 146 °C
- CC(=O)c1ccc(S(=O)(=O)NCc2ccncc2)cc1 — lower, 162 to 167 °C
- Cc1ccc(C=C2NC(=O)N(c3cc(F)ccc3F)C2=O)cc1 — higher, 218 to 224 °C
- COc1cc(CN2CCN(c3ccc(C(=O)NC4CC4)cc3C)CC2)cc2c1OCC(=O)N2 — higher, 220 to 228 °C
- CN(C1CCN(CC(C)(C)O)CC1)S(=O)(=O)c1ccc(Nc2nccc(Nc3ccc(F)c(F)c3)n2)cc1 — higher, 234 to 235 °C
- CNc1ccc(F)cc1C(C)=O — lower, 43 to 45 °C
- CS(=O)(=O)OCCOc1cc([N+](=O)[O-])ccc1N — lower, 132 to 135 °C
- CCCCCCCCCCCCCCCCCCOC(=O)c1ccc(C)c(N)c1 — lower, 79 °C
- COC1=C(OC)C(=O)C2=C(CCC(CCOc3cc(OC)c(OC)c(OC)c3)CC2)C1=O — lower, 91 to 93 °C
